Several values for one entry are separate records, joined by “and”; a condition that tells them apart may be missing. Equal entries are not always repeated. Structures can show the parent of a compound that is named as a salt.
Columns and labels:
MDCKII-wt monolayer = assay: Membrane permeation across MDCKII-wt monolayers (Transwell)
Method: (§1) In vitro permeation studies were also performed on prodrug/enzyme mixtures prepared at various prodrug and enzyme concentrations. […] The experiments were carried out as follows. Maden Darby Canine Kidney-II wild type (MDCK-IIwt) cells were plated on thin membranes in a six well Transwell apparatus. Following confluence and washing, assay buffer (PBS, pH 7.4) was introduced into the basal side of the membrane. At time zero, solutions of various concentrations of prodrug were combined with 0.25 U/ml of A.O protease and introduced on the […] side of the membrane. Aliquots were then taken, with replacement, from both the basal and apical sides, and assayed for both drug and prodrug. The integrity of the membranes throughout the experiment was confirmed by transepithelial resistance (TEER) and inulin permeation measurements.
(§2) Following previously published procedures (Kapoor M, et al., AAPS J, 2014, 16, 3, 577-585; and Kapoor M, et al., Mol Pharm, 2013, 10, 9, 519-3524), Madin Darby canine kidney II wild type (MDCKII-wt: passages between 10 and 20) cells were cultured and grown as monolayers in 12-well Transwell plates ([…] pore size, polyester, Corning). Transepithelial electrical resistance (TEER) was measured to assure membrane integrity just prior to conversion/permeation experiments. TEER and a Lucifer yellow dye permeability assay were used to reassess monolayer integrity at the conclusion of each experiment.
(§3) In separate experiments, solutions containing 900 μM AVFp or AVFm were rapidly mixed with A.O. protease (4 U/mL) in assay buffer (pH 7.4 at 32° C.), and administered at time zero on the apical side of MDCKII-wt monolayers cultured in a 12-well Transwell plate (Kapoor M, et al., AAPS J, 2014, 16, 3, 577-585; and Kapoor M, et al., Mol Pharm, 2013, 10, 9, 519-3524).
(§4) To assess transport of MDZ through the MDCKII-wt monolayer membrane, MDZ, 55 μM (S=1) was introduced on the apical side of the monolayer in a 12-well Transwell, and accumulation of MDZ on the basal side was assayed as a function of time.

[1] = test system: A.O. protease (Aspergillus Oryzae); assay: Enzyme kinetics of prodrug conversion by A.O. protease (HPLC, integrated Michaelis-Menten fit); type: biochemical; settings: for conversion of prodrug to DZP: 480 μM prodrug, A.O. protease 2-8 U/mL; for conversion of prodrug to DZP / Km / Vmax: assay buffer pH 7.4, 32° C.; for extent of conversion by A.O. protease: chirally pure prodrug; for catalytic efficiency as Vmax/(U/mL of A.O. protease): pH 7.4, 32° C.
Method: Enzyme Kinetics. To determine the enzyme kinetic parameters KM and Vmax for a prodrug/enzyme system, various concentrations of prodrug were incubated in assay buffer, pH 7.4 containing A.O. protease, at 32° C., for a fixed time period t, at which point the reaction was stopped using methanol as an enzyme denaturant. […] The reactions were carried out to times when there was already substantial conversion. Concentrations of product, Cd(t) were fit against initial prodrug concentrations, Cp (0), using the integrated Michaelis-Menten equation: Cd(t)+KM ln[1−Cd(t)/Cp(0)]=Vmaxt (1) Fitting was carried out using the Matlab nlinfit function (Mathworks).
AVFm and AVFp (each at 480 μM) were incubated with A.O. protease (2-8 U/mL) in assay buffer over various time intervals in assay buffer pH 7.4 at 32° C.
The Michaelis Menten parameters for AVFp reactions were determined by carrying out reactions for t=5 min in solutions containing A.O. protease.
The extent of reaction was determined after t=12 min with MDZ-pro incubated, at different concentrations, in assay buffer with 4 U/ml A.O. protease.

A.O. protease = assay: Conversion of prodrug by A.O. protease on apical side of MDCKII-wt monolayers, supersaturated drug; type: in vitro ADME, Aspergillus Oryzae; settings: for precipitates of supersaturated drug formed from prodrug/enzyme: apical compartment after prodrug/A.O. protease administration
Method: The same was also shown for MDZ-pro. The experiments were carried out as follows.
Appropriate molar concentrations of MDZ-pro equivalent to supersaturated MDZ solution were incubated with the converting enzyme in assay buffer, pH 7.4 at 32° C. (nasal temperature). Supersaturation potential, S, was calculated as the ratio between the molar concentration of administered MDZ-pro and the molar concentration of saturated MDZ:
Rapidly mixed solutions of chirally pure MDZ-pro and A.O protease were administered onto the apical side of MDCKII-wt monolayers and MDZ-pro, and MDZ concentrations were analyzed on both the apical and basal sides as a function of time. An example of prodrug and drug kinetics in the apical compartment is shown in FIG. 5b (MDZ-pro 326 μM, A.O. protease 16 U/mL). Rapid conversion of prodrug (complete within 30 min) was followed by an extended residence of supersaturated drug in the apical chamber, with supersaturation reached in less than 5 min. […] Apical concentrations of MDZ were close to those predicted, based on a two compartment model with input due to enzymatic conversion of MDZ-pro to MDZ, with assumed rate constant kconv=Vmax/KM.

[2] = Membrane permeation across MDCKII-wt monolayers (Transwell); settings: dog, MDCK
Method: as §1, §2, §3, §4

[3] = MDZ equilibrium solubility in assay buffer; type: physicochemical; settings: aqueous buffer, thermodynamic from solid; assay buffer pH 7.4, 32° C.
Method: Equilibrium solubility of MDZ in assay buffer was determined at three temperatures: 25, 32 and 37° C. There was essentially no effect of temperature on drug thermodynamic solubility within this temperature range.

MDCKII-wt monolayers = assay: Monolayer intactness by TEER and Lucifer yellow permeability after 2 h exposure; settings: A.O. protease 1-16 U/mL
Method: as §2

[4] = AVFp to DZP, 0.25 U/ml A.O. protease, t=5 min
[5] = MDZ-pro to MDZ, 4 U/ml A.O. protease, t=12 min, estimates (s.e.m.)
[6] = MDZ-pro 326 μM, A.O. protease 16 U/mL, apical compartment

CN(C(=O)CNC(=O)[C@@H](N)CCCCN)c1ccc(Cl)cc1C(=O)c1ccccc1 [AVF, Avizafone]
permeation of prodrug across the membrane (MDCKII-wt monolayer; AVF/enzyme administered on the apical side): not to permeate the membrane significantly | permeation of prodrug across the monolayer (MDCKII-wt monolayer; in the absence of enzyme, AVF pure or mix (data not shown)): negligible permeation

CN(C(=O)CNC(=O)[C@@H](N)CCCCN)c1ccc(Cl)cc1C(=O)c1ccccc1 [AVFm]
conversion of prodrug to DZP [1]: ~70%

CN(C(=O)CNC(=O)[C@@H](N)CCCCN)c1ccc(Cl)cc1C(=O)c1ccccc1 [AVFp, Avizafone Hydrochloride]
rate and amount of DZP permeation compared with enantiomeric mixture AVFm (MDCKII-wt monolayer; 900 μM prodrug, A.O. protease 4 U/mL, apical, pH 7.4, 32° C., each time point): greater | conversion of prodrug to DZP ([1]; Hydrochloride): 100% | Km [1, 4]: 3.38 ± 0.34 mM | Vmax [1, 4]: 0.518 ± 0.030 mM/min | extent of conversion by A.O. protease [1]: complete conversion | catalytic efficiency as Vmax/(U/mL of A.O. protease) [1]: 2.07 mM/min/(U/ml)

CN1C(=O)CN=C(c2ccccc2)c2cc(Cl)ccc21 [DZP, diazepam]
precipitates of supersaturated drug formed from prodrug/enzyme (A.O. protease): no evidence of formation of DZP precipitates

Cc1ncc2n1-c1ccc(Cl)cc1C(c1ccccc1F)=NC2 [MDZ, midazolam]
clearance CL of the membrane (MDCKII-wt monolayer; MDZ 55 μM (S=1) apical, 12-well Transwell, two compartment model fit): 0.11 ± 0.01 mL/h | Papp A→B at 55 μM [2]: 26.5 ×10⁻⁶ cm/s | solubility thermodynamic [3]: 55 µM and 15.5 µg/mL | % TEER values (MDCKII-wt monolayers): unaffected | precipitates of supersaturated drug formed from prodrug/enzyme (A.O. protease): none were found

Cc1ncc(CNC(=O)[C@@H](N)CCCCN)n1-c1ccc(Cl)cc1C(=O)c1ccccc1F [MDZ-pro, Midazolam L-Lysine Prodrug]
conversion via endogenous enzymes (MDCKII-wt monolayer; MDZ-pro alone (without enzyme), apical, 2 h, up to 2 mM): negligible conversion | prodrug permeation through MDCKII-wt monolayers (MDCKII-wt monolayer; MDZ-pro alone (without enzyme), apical, 2 h, up to 2 mM initial prodrug concentration): negligible prodrug permeation | Km [1, 5]: 5.86 ± 0.83 mM | Vmax [1, 5]: 0.233 ± 0.022 mM/min | extent of conversion by A.O. protease [1]: complete conversion | catalytic efficiency as Vmax/(U/mL of A.O. protease) [1]: 0.0582 mM/min/(U/ml) | % TEER values (MDCKII-wt monolayers): unaffected | time to complete conversion of prodrug (A.O. protease; [6]): ≤ 30 min | time to reach supersaturation (A.O. protease; [6]): less than 5 min
